We go through 4 molecules from article PMC3295232 (Journal of the American Chemical Society, 2012).

Data set [1] has as its target T1, YPDC (Saccharomyces cerevisiae, UniProt P06169).
T1 sequence (P06169 1-563): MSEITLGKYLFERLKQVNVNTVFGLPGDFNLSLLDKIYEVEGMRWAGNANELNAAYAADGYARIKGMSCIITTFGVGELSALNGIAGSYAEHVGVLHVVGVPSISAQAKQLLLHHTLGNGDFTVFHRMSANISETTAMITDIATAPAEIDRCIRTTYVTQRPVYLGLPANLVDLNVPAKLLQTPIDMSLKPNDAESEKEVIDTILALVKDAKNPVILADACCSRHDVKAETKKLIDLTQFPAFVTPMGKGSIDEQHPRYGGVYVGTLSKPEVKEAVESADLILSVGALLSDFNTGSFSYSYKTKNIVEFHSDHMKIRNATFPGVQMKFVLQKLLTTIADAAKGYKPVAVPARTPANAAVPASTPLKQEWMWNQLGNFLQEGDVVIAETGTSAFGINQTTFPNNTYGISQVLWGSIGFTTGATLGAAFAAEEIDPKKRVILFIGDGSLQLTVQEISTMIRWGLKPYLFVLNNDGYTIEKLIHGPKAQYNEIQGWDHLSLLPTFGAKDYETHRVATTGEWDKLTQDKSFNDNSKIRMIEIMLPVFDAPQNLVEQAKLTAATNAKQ
The data set can be described thus: CD titration with propionylphosphinate. The conditions noted are these: for Kd: pH 6.0, 25 °C. The class given is binding.

The target of data set [2] is T2, E91D YPDC (Saccharomyces cerevisiae, UniProt P06169, E91D).
T2 sequence (P06169 1-563 E91D): T1 sequence (P06169 1-563) with E91D
The data set can be described thus: CD titration with propionylphosphinate. The class given is binding. The conditions noted are these: for Kd: pH 6.0, 25 °C.

Data set [3] concerns the target T3, E51D YPDC (Saccharomyces cerevisiae, UniProt P06169, E51D).
T3 sequence (P06169 1-563 E51D): T1 sequence (P06169 1-563) with E51D
The experiment in a line: CD titration with propionylphosphinate. The class given is binding.

Data set [4] addresses T4, D28A YPDC (Saccharomyces cerevisiae, UniProt P06169, D28A).
T4 sequence (P06169 1-563 D28A): T1 sequence (P06169 1-563) with D28A
The data set can be described thus: CD titration with propionylphosphinate. It is filed as binding. The note with it: pH 6.0, 25 °C.

The target in data set [5] is T5, E477Q YPDC (Saccharomyces cerevisiae, UniProt P06169, E477Q).
T5 sequence (P06169 1-563 E477Q): T1 sequence (P06169 1-563) with E477Q
The data set can be described thus: CD titration with propionylphosphinate. The class given is binding. The conditions noted are these: pH 6.0, 25 °C.

Data set [6] deals with T6, C221E/C222A YPDC (Saccharomyces cerevisiae, UniProt P06169, C221E/C222A).
T6 sequence (P06169 1-563 C221E/C222A): T1 sequence (P06169 1-563) with C221E, C222A
The data set can be described thus: CD titration with propionylphosphinate. The class given is binding. The note with it: IP form of PPThDP.

Data set [7] concerns yeast pyruvate decarboxylase (YPDC). The class given is biochemical, Saccharomyces cerevisiae. The conditions noted are these: 40 mM pyruvate in syringe, 10 °C, pH 6.0.
Data set [8] has the same test system. The note with it: reaction with pyruvate; cited from earlier work.
Data set [9] has the same test system. The data set can be described thus: YPDC assay coupled to alcohol dehydrogenase/NADH. It is filed as biochemical, Saccharomyces cerevisiae. The note with it: pyruvate as substrate, pH 6.0, 30 °C; for kcat / subunit: per subunit.
The test system is the same in data set [10]. The note with it: pyruvate as substrate; cited from earlier work.
Where [11] appears, read: read-out: Kd^app (IP), 1′,4′-iminopyrimidine tautomer of PPThDP, CD band at 297 nm.
Where [12] appears, read: read-out: Kd^app (MC), Michaelis complex, negative CD band at 330 nm.

Changes are numbered by the printed parent chain. Numbers in names are those of the source. Read-outs that look alike come from different tables or passages of the source. Marks after values point to notes of the source that are not given here.

Consider `CCC(=O)[PH](=O)[O-].[Na+]` [PP, sodium propionylphosphinate], for which the “CD max (IP)” value is on record as 15.8 ± 0.79 (IP) mdeg in data set [1] (IP form of PPThDP, 297 nm); 7.6 ± 0.63 (IP) mdeg in data set [2] (IP form of PPThDP, 297 nm); 21.6 ± 0.54 (IP) mdeg in [3] (IP form of PPThDP); 4.7 ± 0.77 (IP) mdeg in data set [6]. Moreover, the Kd amounted to 7.82 ± 0.55 mM in data set [1] (setting [11]); 9.1 ± 0.45 mM in data set [1] (setting [12]); 7.02 ± 1.34 mM in data set [2] (setting [11]); 8.02 ± 0.92 mM in data set [2] (setting [12]); 13.6 ± 0.35 mM in data set [3] (read-out: Kd^app (IP), 1′,4′-iminopyrimidine tautomer of PPThDP, CD band at 297 nm, pH 6.0, 25 °C). In [2] (Michaelis complex, 330 nm), the “CD max (MC)” value is −2.85 ± 0.18 (MC) mdeg. For the same molecule, the “Kd^app” value in data set [4] and in [5] was “Not detected” each time.

B1: YPDC: wild type yeast pyruvate decarboxylase (EC 4.1.1.1) isolated from Saccharomyces cerevisiae (protein, UniProt P06169 2-563, looked up)
Pyruvate decarboxylase …: SEITLGKYLFERLKQVNVNTVFGLPGDFNLSLLDKIYEVEGMRWAGNANELNAAYAADGYARIKGMSCIITTFGVGELSALNGIAGSYAEHVGVLHVVGVPSISAQAKQLLLHHTLGNGDFTVFHRMSANISETTAMITDIATAPAEIDRCIRTTYVTQRPVYLGLPANLVDLNVPAKLLQTPIDMSLKPNDAESEKEVIDTILALVKDAKNPVILADACCSRHDVKAETKKLIDLTQFPAFVTPMGKGSIDEQHPRYGGVYVGTLSKPEVKEAVESADLILSVGALLSDFNTGSFSYSYKTKNIVEFHSDHMKIRNATFPGVQMKFVLQKLLTTIADAAKGYKPVAVPARTPANAAVPASTPLKQEWMWNQLGNFLQEGDVVIAETGTSAFGINQTTFPNNTYGISQVLWGSIGFTTGATLGAAFAAEEIDPKKRVILFIGDGSLQLTVQEISTMIRWGLKPYLFVLNNDGYTIEKLIHGPKAQYNEIQGWDHLSLLPTFGAKDYETHRVATTGEWDKLTQDKSFNDNSKIRMIEIMLPVFDAPQNLVEQAKLTAATNAKQ
For B1, in [7], the “rate constant of accumulation of IP tautomer (LThDP), CD signal at 313 nm” value is 312 s⁻¹. Moreover, the “k′2 (net forward rate constant of LThDP formation)” value in [8] is 294 ± 20 s⁻¹. For the same molecule, in data set [9], the kcat / subunit was found to be 60 s⁻¹ and the S0.5 is 1.1 ± 0.2 mM.

B2: D28A: variant at the indicated position of YPDC (protein, UniProt P06169 2-563, looked up, variant D28A)
Pyruvate decarboxylase …: B1 Pyruvate decarboxylase … with D27A
Regarding B2, the kcat / subunit in data set [9] was determined as 0.066 s⁻¹. Also, in [10], the S0.5 is 1.66 ± 0.25 ^b mM.

B3: E477Q: variant at the indicated position of YPDC (protein, UniProt P06169 2-563, looked up, variant E477Q)
Pyruvate decarboxylase …: B1 Pyruvate decarboxylase … with E476Q
On to B3, for which the kcat / subunit in data set [9] came out at 0.086 s⁻¹. Also, the S0.5 in data set [10] is 3.02 ± 0.22 ^b mM.
